Measured values from BindingDB's records for doi:10.1021/jm800571m (The Scripps Research Institute, 2008).

Molecular target: T1, Adenosine 5'-phosphosulfate reductase (Mycobacterium tuberculosis (strain CDC 1551 / Oshkosh), UniProt P9WIK2)
T1 sequence (P9WIK2 whole entry): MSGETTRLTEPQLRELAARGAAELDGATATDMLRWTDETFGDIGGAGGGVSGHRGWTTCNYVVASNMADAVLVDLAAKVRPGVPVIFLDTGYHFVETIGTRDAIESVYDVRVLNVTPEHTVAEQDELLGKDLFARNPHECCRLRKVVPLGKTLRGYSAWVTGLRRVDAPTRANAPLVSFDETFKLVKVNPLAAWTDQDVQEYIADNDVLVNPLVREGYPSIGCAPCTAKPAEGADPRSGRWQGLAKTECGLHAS
Test: Determination of Dissociation Constant (Kd)
Settings: pH 7.5; 30 °C
Method: Values of Ki were determined from the dependence of the observed rate constant (kobs) on inhibitor concentration. […] A range of inhibitor concentrations was employed from at least 5-fold below to 10-fold above the inhibition constant. Nonlinear least-squares fits of the equation for competitive inhibition gave excellent fits in all cases, and the standard error was typically less than 15%.

Compound | Kd [µM]
CC(=O)[C@H]1CC[C@@H]2[C@]1(C)CC=C1[C@]23C=C[C@]2(C[C@@H](O)CC[C@]12C)C(C(=O)O)C3C(=O)O (stereo partly drawn) [(1R,2R,5S,6S,10S,13S,15R)-5-acetyl-13-hydroxy-6,10-dimethylpentacyclo[13.2.2.0^{1,9}.0^{2,6}.0^{10,15}]nonadeca-8,18-diene-16,17-dicarboxylic acid] | 127
O=C(O)CSc1nnc2c3ccccc3c3ccccc3c2n1 [2-(1,2,4-triazatriphenylen-3-ylsulfanyl)acetic acid] | 46.8
